Experimental data as given in ChEMBL document CHEMBL2073742, “The rat canalicular conjugate export pump (Mrp2) is down-regulated in intrahepatic and obstructive cholestasis” (Gastroenterology, 1997).

Target: ATP-binding cassette sub-family C member 2 (Rattus norvegicus, UniProt Q63120)
Test: TP_TRANSPORTER: Western in vivo, liver of SD rat
Assay type: functional, organism-based, Sprague-Dawley

Sequence of ATP-binding cassette sub-family C member 2 (Q63120 whole entry): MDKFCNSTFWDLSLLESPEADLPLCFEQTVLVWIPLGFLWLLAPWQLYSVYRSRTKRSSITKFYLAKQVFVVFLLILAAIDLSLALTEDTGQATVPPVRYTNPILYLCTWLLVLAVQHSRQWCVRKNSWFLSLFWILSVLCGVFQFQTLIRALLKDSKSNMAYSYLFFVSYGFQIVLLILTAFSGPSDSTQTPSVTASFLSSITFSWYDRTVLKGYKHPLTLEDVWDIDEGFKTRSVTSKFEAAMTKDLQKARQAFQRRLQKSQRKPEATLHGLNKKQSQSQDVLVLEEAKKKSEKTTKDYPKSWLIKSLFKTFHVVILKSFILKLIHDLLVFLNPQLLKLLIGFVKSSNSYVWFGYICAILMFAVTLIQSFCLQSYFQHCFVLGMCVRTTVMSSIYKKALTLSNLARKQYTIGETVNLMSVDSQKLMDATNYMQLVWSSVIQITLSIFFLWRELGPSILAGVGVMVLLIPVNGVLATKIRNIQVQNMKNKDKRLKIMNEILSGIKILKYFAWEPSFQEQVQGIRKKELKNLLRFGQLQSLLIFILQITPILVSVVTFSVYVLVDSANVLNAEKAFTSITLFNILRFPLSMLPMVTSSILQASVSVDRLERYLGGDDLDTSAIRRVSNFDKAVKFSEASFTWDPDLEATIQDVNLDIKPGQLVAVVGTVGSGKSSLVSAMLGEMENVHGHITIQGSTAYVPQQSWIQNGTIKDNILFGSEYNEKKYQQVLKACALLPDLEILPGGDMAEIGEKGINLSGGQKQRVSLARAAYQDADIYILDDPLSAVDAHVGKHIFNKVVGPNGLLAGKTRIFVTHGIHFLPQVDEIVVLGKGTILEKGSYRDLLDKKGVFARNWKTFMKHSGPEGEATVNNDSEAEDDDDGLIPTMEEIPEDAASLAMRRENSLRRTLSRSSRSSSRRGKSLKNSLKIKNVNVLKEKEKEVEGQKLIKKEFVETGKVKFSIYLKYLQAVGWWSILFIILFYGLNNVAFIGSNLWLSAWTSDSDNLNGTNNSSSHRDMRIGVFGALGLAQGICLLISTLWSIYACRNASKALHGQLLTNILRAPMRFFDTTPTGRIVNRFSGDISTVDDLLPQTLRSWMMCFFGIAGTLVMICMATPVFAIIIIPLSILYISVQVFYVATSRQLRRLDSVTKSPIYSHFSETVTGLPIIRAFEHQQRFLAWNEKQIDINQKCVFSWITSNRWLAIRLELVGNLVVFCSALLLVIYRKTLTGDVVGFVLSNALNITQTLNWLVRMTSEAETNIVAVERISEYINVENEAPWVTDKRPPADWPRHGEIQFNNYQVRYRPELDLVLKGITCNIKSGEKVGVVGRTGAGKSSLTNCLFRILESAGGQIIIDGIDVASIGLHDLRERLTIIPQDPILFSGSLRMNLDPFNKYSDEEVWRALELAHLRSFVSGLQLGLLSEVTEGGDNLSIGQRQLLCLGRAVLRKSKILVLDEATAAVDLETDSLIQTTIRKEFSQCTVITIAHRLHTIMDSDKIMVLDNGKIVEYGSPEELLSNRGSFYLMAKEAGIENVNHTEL

`C#C[C@]1(O)CC[C@H]2[C@@H]3CCc4cc(O)ccc4[C@H]3CC[C@@]21C` [ETHINYL ESTRADIOL] was tested, and the Activity was “inducer [Decrease]”.
